The source of these data is publication PMC6458995, “MAP4K4 Inhibition Promotes Survival of Human Stem Cell-Derived Cardiomyocytes and Reduces Infarct Size In Vivo” (Cell Stem Cell, 2019).

For orientation: residual activity means the signal under treatment as a percentage of the control signal.

Holding throughout (assay): Dundee kinase panel
What all share (format): biochemical
Holding throughout (settings): for remaining activity at 1 µM: read-out: residual activity

One assay concerns the target T1, CK1δ (Homo sapiens, UniProt P48730).
T1 construct: lines 1-140) and Reaction Biology
The procedure:
(§1) Compounds were screened at 1 μM. For key hits, pIC50 values were then determined by HTRF as above. […] Stability in mouse and human liver microsomes was determined by Cyprotex.

The next assay deals with T2, DDR2 (Homo sapiens, UniProt Q16832).
T2 construct: lines 1-140) and Reaction Biology
T2 sequence (Q16832 22-855): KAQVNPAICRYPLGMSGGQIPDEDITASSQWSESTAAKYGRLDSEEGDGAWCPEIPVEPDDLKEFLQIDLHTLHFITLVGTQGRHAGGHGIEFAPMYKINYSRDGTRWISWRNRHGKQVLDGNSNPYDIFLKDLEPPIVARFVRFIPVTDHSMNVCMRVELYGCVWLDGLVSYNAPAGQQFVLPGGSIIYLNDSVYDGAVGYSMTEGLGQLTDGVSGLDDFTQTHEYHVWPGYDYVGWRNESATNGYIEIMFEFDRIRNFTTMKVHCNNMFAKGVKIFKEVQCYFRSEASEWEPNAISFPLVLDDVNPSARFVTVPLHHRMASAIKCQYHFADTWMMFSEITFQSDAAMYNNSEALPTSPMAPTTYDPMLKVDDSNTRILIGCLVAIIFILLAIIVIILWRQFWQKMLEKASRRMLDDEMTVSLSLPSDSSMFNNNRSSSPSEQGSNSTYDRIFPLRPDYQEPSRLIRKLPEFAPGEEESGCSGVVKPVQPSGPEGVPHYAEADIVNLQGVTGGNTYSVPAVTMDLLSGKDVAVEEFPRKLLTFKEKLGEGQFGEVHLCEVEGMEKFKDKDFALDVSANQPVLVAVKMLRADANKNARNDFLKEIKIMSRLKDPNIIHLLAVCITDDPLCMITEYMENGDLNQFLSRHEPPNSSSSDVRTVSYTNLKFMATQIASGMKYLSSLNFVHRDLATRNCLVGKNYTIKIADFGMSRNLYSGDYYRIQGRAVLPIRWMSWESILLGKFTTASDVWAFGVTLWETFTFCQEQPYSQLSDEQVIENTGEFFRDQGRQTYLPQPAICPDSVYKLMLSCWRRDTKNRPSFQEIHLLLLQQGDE
The procedure: as §1

For another assay, the target named is T3, DYRK3 (Homo sapiens, UniProt O43781).
T3 construct: lines 1-140) and Reaction Biology
T3 sequence (O43781 1-588): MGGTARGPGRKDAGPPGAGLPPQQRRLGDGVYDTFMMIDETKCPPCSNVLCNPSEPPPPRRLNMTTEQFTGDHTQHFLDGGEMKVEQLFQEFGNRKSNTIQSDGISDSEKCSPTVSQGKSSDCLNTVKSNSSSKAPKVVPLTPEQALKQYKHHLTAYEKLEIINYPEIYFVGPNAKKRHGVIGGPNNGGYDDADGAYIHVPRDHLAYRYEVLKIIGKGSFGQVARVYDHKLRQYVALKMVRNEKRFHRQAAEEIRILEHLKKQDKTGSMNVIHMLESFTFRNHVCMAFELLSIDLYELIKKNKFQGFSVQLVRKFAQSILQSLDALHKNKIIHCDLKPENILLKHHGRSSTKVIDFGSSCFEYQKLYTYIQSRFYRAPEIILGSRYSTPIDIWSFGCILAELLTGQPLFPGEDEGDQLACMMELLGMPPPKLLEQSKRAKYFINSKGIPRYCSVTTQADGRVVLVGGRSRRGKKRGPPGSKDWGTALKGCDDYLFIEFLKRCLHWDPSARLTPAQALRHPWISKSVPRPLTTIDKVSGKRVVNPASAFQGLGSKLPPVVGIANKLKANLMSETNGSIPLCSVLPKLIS
The procedure:
as §1

Another assay concerns the target T4, JAK2 (Homo sapiens, UniProt O60674).
T4 construct: lines 1-140) and Reaction Biology
As to the method:
as §1

The next assay deals with T5, NEK2a (Homo sapiens, UniProt P51955).
T5 construct: lines 1-140) and Reaction Biology
T5 sequence (P51955 1-445): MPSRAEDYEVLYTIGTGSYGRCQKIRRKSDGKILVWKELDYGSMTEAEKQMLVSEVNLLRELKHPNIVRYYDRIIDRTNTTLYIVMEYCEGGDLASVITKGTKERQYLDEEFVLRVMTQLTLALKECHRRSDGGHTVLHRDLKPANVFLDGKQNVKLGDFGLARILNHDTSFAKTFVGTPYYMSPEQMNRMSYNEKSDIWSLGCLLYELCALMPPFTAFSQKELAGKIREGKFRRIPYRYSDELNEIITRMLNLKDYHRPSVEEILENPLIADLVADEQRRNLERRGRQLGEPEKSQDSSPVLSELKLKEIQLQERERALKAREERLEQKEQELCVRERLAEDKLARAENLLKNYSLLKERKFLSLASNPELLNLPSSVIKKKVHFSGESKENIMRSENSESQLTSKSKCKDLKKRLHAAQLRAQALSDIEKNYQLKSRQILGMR
The procedure: as §1

The target in a further assay is T6, PKA (Homo sapiens, UniProt P17612).
T6 construct: lines 1-140) and Reaction Biology
The procedure: as §1

The next assay addresses T7, PRK2 (Homo sapiens, UniProt Q16513).
T7 construct: lines 1-140) and Reaction Biology
As to the method:
as §1

For the next assay, the target named is T8, RSK1 (Homo sapiens, UniProt Q15418).
T8 construct: lines 1-140) and Reaction Biology
The procedure:
as §1

For the next assay, the target named is T9, SRPK1 (Homo sapiens, UniProt Q96SB4).
T9 construct: lines 1-140) and Reaction Biology
As to the method:
as §1

The target of another assay is T10, SmMLCK (Homo sapiens, UniProt Q15746).
T10 construct: lines 1-140) and Reaction Biology
The procedure: as §1

A further assay addresses T11, TSSK1 (Homo sapiens, UniProt Q9BXA7).
T11 construct: lines 1-140) and Reaction Biology
T11 sequence (Q9BXA7 1-367): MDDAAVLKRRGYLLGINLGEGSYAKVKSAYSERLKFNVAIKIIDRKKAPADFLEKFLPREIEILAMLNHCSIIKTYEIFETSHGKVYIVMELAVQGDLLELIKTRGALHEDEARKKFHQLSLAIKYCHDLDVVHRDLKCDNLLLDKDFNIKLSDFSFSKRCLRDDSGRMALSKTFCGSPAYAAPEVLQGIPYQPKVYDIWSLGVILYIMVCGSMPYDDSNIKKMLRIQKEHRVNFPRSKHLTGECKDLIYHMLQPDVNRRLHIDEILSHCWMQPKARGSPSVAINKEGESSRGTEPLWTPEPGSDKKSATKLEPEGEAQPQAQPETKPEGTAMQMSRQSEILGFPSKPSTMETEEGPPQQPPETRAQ
As to the method:
as §1

T1 sequence (P48730 whole entry): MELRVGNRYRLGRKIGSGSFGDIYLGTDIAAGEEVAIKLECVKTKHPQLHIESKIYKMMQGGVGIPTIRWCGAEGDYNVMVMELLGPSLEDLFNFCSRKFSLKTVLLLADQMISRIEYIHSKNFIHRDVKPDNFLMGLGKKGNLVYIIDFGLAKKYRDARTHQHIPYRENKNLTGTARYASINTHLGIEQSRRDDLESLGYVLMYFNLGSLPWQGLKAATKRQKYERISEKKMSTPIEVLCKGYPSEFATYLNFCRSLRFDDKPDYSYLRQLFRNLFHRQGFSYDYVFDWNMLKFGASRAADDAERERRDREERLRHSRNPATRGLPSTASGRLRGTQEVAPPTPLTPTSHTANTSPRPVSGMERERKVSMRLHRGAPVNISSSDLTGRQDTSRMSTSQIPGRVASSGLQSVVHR
T9 sequence (Q96SB4 whole entry): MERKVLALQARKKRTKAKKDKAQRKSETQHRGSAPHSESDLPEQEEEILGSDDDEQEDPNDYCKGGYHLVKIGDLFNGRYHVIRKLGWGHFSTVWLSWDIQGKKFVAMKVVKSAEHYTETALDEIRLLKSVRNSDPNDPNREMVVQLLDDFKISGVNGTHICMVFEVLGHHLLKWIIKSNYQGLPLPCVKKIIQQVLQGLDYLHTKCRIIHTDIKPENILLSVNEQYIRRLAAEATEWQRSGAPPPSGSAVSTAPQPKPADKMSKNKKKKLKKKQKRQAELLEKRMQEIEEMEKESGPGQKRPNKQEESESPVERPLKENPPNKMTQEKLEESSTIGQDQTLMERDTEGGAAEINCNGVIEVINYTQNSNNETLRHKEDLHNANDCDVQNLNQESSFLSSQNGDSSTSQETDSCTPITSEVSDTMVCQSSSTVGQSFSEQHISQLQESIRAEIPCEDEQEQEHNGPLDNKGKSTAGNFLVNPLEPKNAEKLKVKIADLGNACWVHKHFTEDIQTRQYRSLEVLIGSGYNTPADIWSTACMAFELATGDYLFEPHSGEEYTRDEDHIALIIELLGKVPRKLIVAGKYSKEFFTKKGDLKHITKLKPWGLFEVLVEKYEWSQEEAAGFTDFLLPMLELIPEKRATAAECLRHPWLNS
T4 sequence (O60674 whole entry): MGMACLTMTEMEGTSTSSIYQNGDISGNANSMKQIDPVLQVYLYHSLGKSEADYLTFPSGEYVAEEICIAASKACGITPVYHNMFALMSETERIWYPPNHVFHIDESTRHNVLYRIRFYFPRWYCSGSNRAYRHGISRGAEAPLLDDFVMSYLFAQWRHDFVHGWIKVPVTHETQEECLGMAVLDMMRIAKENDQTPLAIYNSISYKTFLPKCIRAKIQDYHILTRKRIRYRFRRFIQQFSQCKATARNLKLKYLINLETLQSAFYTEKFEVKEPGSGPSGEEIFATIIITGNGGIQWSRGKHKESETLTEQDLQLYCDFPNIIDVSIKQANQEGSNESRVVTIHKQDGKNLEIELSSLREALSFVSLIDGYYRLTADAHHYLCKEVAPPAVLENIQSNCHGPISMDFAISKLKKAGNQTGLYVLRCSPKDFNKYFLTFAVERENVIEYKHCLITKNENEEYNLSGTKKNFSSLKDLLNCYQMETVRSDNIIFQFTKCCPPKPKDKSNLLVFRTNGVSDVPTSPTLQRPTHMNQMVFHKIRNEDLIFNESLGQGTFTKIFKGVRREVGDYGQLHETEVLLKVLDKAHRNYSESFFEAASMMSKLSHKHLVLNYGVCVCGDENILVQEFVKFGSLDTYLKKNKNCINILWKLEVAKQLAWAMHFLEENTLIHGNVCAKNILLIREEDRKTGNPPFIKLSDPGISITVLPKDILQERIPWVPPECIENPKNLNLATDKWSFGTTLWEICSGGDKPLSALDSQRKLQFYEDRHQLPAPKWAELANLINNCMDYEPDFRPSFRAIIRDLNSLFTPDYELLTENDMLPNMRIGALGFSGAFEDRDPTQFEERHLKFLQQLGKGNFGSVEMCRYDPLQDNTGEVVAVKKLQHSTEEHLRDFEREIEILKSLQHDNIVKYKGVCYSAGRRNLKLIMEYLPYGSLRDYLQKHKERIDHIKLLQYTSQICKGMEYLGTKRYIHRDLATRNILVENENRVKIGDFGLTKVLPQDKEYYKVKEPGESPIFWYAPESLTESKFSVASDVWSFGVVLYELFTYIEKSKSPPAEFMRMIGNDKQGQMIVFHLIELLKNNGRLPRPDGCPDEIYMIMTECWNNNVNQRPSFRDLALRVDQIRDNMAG
T8 sequence (Q15418 whole entry): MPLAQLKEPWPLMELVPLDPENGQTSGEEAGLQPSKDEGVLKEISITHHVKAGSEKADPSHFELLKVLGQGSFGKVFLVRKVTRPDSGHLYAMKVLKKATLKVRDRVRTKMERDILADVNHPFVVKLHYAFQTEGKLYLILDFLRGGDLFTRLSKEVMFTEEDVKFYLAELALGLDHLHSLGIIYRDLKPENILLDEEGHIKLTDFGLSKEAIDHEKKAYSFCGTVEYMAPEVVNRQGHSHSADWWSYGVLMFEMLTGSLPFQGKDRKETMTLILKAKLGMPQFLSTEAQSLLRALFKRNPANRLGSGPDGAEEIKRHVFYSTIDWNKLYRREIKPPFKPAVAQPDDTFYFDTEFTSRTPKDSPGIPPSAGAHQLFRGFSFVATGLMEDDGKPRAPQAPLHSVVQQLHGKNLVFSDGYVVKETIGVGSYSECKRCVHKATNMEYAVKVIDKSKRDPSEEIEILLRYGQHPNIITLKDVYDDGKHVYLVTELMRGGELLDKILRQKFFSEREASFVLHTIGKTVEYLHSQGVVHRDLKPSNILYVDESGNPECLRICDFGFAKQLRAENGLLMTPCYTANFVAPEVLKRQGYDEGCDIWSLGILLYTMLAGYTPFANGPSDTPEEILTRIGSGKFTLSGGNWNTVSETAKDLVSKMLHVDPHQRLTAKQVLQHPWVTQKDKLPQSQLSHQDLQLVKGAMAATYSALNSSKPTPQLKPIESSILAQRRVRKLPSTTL
T10 sequence (Q15746 923-1914): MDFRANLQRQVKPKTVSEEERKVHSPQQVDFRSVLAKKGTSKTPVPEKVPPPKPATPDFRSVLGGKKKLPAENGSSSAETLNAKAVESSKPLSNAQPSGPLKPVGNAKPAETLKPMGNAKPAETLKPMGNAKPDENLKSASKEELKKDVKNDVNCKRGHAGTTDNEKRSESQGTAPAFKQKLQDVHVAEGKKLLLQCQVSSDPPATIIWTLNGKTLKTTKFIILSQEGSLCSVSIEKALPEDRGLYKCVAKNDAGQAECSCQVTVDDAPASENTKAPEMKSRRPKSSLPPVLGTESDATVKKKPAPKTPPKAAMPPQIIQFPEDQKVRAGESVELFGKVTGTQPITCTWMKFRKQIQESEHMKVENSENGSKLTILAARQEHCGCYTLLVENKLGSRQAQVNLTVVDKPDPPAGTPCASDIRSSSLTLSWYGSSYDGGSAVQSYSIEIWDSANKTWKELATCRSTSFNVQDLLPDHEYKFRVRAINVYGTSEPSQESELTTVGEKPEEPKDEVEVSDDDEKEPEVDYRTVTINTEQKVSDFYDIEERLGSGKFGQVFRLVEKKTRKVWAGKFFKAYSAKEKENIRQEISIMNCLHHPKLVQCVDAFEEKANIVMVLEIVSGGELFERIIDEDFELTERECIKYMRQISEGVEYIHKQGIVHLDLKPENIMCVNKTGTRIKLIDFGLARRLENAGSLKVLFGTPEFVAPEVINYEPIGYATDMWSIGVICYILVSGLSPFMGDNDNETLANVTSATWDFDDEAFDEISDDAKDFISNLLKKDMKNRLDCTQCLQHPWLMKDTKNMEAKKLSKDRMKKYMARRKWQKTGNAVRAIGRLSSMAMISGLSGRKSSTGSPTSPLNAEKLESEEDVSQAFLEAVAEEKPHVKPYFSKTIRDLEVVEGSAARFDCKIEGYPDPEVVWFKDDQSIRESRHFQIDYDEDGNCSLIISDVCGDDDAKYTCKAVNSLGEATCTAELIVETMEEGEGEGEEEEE
T7 sequence (Q16513 whole entry): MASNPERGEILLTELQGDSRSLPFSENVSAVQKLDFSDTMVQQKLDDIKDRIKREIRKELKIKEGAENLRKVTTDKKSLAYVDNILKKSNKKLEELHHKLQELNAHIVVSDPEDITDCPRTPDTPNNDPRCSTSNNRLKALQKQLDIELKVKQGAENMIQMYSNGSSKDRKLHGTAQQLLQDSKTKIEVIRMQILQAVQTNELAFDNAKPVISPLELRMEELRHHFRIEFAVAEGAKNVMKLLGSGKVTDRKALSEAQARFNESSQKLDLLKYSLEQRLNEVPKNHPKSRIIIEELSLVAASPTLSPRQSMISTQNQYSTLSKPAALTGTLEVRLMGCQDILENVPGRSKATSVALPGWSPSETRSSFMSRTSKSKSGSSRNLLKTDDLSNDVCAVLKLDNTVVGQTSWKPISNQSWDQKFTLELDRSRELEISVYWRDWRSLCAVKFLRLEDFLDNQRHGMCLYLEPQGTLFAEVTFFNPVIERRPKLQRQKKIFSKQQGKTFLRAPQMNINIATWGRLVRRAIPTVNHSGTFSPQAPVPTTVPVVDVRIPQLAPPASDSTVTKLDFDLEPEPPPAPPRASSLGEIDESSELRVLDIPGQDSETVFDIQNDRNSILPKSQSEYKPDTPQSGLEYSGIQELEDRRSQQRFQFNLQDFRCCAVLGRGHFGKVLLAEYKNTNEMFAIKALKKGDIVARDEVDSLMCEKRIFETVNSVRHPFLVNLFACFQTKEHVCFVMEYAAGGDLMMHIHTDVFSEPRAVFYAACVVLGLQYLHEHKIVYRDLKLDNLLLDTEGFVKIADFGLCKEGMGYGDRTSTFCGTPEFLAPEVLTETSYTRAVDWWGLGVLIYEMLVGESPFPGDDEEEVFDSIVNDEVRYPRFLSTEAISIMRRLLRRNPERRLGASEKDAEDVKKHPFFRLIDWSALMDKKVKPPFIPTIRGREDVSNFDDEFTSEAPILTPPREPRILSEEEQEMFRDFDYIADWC

Take `O=C1Nc2ccc(I)cc2/C1=C/c1cc(Br)c(O)c(Br)c1` [GW5074]: the remaining activity at 1 µM on CK1δ amounted to 88%; on DDR2 it was 62%; at DYRK3, 14%; at JAK2, 82%; at NEK2a, 8%; at PKA it was 83%. Also, the remaining activity at 1 µM on PRK2 stood at 68%; at RSK1, 32%; on SRPK1, 8%; on SmMLCK it was 40%; on TSSK1 it was 73%.
As for `Nc1ncc(C(=O)NC2CN(C(=O)C3CC3)C2)c2ccc(-c3cccc(F)c3)nc12` [GNE-495], the residual activity was 65% at CK1δ (1 μM); 109% at DDR2 (1 μM); 83% on DYRK3 (1 μM); 76% at JAK2 (1 μM); 85% at NEK2a (1 μM); 95% at PKA (1 μM). Further, the residual activity at PRK2 (1 μM) was 85%; at RSK1 (1 μM), 65%; at SRPK1 (1 μM), 105%; at SmMLCK (1 μM) it was 68%; on TSSK1 (1 μM), 77%.
With `Oc1ncnc2c1c(-c1ccccc1)cn2-c1ccccc1` [F1386-0303, 5,7-diphenyl-7H-pyrrolo[2,3-d]pyrimidin-4-ol], the remaining activity at 1 µM at CK1δ was 107%; at DDR2 it was 88%; at DYRK3 it was 101%; at JAK2, 94%; at NEK2a, 108%; on PKA it was 103%. Further, the remaining activity at 1 µM at PRK2 is 111%; on RSK1 it was 89%; on SRPK1, 112%; on SmMLCK, 76%; at TSSK1, 109%.
Consider `COCCOc1ccc(-c2cn(-c3ccccc3)c3nc[nH]c(=O)c23)cc1` [DMX-5804, 5-[4-(2-methoxy-ethoxy)-phenyl]-7-phenyl-3,7-dihydro-pyrrolo[2,3-d]pyrimidin-4-one], for which the remaining activity at 1 µM at CK1δ was 94%; at DDR2, 80%; on DYRK3, 128%; at JAK2 it was 70%; at NEK2a it was 106%; at PKA it was 109%. Also, the remaining activity at 1 µM on PRK2 was 90%; on RSK1 it was 86%; on SRPK1 it was 91%; at SmMLCK, 89%; at TSSK1, 103%.
With `O=C1Cc2c([nH]c3ccc(Br)cc23)-c2ccccc2N1` [Kenpaullone], the remaining activity at 1 µM came out at 104% on CK1δ; 88% on DDR2; 72% on DYRK3; 105% on JAK2; 89% on NEK2a; 105% at PKA. Also, the remaining activity at 1 µM amounted to 57% at PRK2; 84% on RSK1; 36% at SRPK1; 97% at SmMLCK; 46% at TSSK1.
